US20070010566A1, “Thiazolidinones without basic nitrogen, their production and use as pharmaceutical agents” (priority 2005, published 2007)

Experiments:
[1] = molecular target: T1, Recombinant human Plk-1 (6×His) (Homo sapiens, UniProt P53350); assay: PLK enzyme assay (33P-γ-ATP incorporation in biotinylated casein, SPA); format: biochemical; conditions: recombinant human Plk-1, casein substrate, 0.5 μmol of ATP, 90 minutes at room temperature; read-out: PLK-1 IC50 [nM] Inhibition
T1 construct: 6×His; made in house; host or cells: baculovirus-infected insect cells (Hi5)
T1 sequence (P53350 whole entry): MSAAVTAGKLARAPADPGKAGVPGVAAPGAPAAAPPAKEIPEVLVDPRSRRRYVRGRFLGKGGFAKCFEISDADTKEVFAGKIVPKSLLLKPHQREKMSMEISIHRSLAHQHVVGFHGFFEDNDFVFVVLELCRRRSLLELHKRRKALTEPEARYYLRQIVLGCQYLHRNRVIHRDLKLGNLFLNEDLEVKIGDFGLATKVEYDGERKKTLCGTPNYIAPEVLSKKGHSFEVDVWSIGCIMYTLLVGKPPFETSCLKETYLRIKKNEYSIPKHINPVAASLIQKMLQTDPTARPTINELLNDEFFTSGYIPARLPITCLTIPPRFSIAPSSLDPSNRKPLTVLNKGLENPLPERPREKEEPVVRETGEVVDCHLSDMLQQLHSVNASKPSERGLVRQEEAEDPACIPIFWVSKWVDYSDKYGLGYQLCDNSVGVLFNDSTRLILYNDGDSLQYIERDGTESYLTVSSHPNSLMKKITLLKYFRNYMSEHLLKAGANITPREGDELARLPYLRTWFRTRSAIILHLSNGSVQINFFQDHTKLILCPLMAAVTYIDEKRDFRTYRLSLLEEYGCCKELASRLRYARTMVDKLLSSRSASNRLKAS
Method: Recombinant human Plk-1 (6×His) was purified from baculovirus-infected insect cells (Hi5).
10 ng of (produced in a recombinant manner and purified) PLK enzyme is incubated for 90 minutes at room temperature with biotinylated casein and 33P-γ-ATP as a substrate in a volume of 15 μl in 384-well Greiner small-volume microtiter plates (final concentrations in the buffer: 660 ng/ml of PLK; 0.7 μmol of casein, 0.5 μmol of ATP incl. 400 nCi/ml of 33P-γ-ATP; 10 mmol of MgCl2, 1 mmol of MnCl2; 0.01% NP40; 1 mmol of DTT, protease inhibitors; 0.1 mmol of Na2VO3 in 50 mmol of HEPES, pH 7.5). To complete the reaction, 5 μl of stop solution (500 μmol of ATP; 500 mmol of EDTA; 1% Triton X100; 100 mg/ml of streptavidin-coated SPA beads in PBS) is added. After the microtiter plate is sealed by film, the beads are sedimented by centrifuging (10 minutes, 1500 rpm). The incorporation of 33P-γ-ATP in casein is intended as a measurement of enzyme activity by β-counting.
Test substances are used in various concentrations (0 μmol, as well as in the range of 0.01-30 μmol). The final concentration of the solvent dimethyl sulfoxide is 1.5% in all batches.

[2] = tested on: human MaTu breast tumour cells; assay: Proliferation assay (crystal violet staining); format: cell-based; conditions: 96 h, incubated for 4 days with test substance, read-out: Inhibition of the Tumour Cell Proliferation (MaTu) IC50
Method: Cultivated human MaTu breast tumour cells were flattened out at a density of 5000 cells/measuring point in a 96-well multititer plate in 200 μl of the corresponding growth medium. After 24 hours, the cells of one plate (zero-point plate) were colored with crystal violet (see below), while the medium of the other plates was replaced by fresh culture medium (200 μl), to which the test substances were added at various concentrations (0 μm, as well as in the range of 0.01-30 μm; the final concentration of the solvent dimethyl sulfoxide was 0.5%). The cells were incubated for 4 days in the presence of test substances. The cell proliferation was determined by coloring the cells with crystal violet: the cells were fixed by adding 20 μl/measuring point of an 11% glutaric aldehyde solution for 15 minutes at room temperature. After three washing cycles of the fixed cells with water, the plates were dried at room temperature. The cells were colored by adding 100 μl/measuring point of a 0.1% crystal violet solution (pH was set at 3 by adding acetic acid). […] The extinction was determined by photometry at a wavelength of 595 nm. The change of cell growth, in percent, was calculated by standardization of the measured values to the extinction values of the zero-point plate (=0%) and the extinction of the untreated (0 μm) cells (=100%).

IC50 [1] [nM]	IC50 [2] [nM]	SMILES
250	3600	CCn1c(=C(C#N)C(=O)NCC#N)sc(=Cc2nc[nH]c2C)c1=O [Example 8]
230	4200	CCn1c(=C(C#N)C(=O)NCC(F)(F)F)sc(=Cc2nc[nH]c2C)c1=O [Example 9]
